From patent US6777405B2, “Detection and treatment of duplex polynucleotide damage” (California Institute of Technology, priority 1997, dated 2004)

Experiments:
[1] = system: B-form DNA (33mer correctly matched hairpin, 25mer B-DNA); assay: Photocleavage on correctly matched hairpin and competitive titration with unlabeled B-DNA; type: binding
Experimental: (§1) The thermodynamic binding constant was determined to be 8.4 (±1.0)×10^5 M^−1. Similar DNA photocleavage titrations at other mismatch sites have measured the affinity of Δ [Rh(bpy)2(chrysi)]^3+ between 1×10^7 and 3×10^5 M^−1. To examine the level of selectivity the average binding constant of Δ[Rh(bpy)2(chrysi)]^3+ to B-form DNA was also determined. Photocleavage on a 33mer correctly matched hairpin and competitive titration with unlabeled 25mer B-DNA yielded a value of 4 (±2)×10^4 M^−1 for the average non-specific binding affinity.

[2] = system: DNA duplexes having a single base pair mismatch (SEQ ID NO:1/SEQ ID NO:2); assay: Photocleavage of 17-mer DNA duplexes with a single base pair mismatch (365 nm, PAGE); type: biochemical
Experimental: A set of DNA duplexes was prepared having the following sequence:
3′-[…]-5′(SEQ ID NO:1)
5′-[…]-3′(SEQ ID NO:2),
where X and Y were varied to provide A-T, G-C, and the following mismatches: C-C, C-A, T-T, A-A, T-C, T-G, G-A, and G-G. All oligonucleotides were prepared using standard phosphoramidite chemistry, and were purified by reverse phase HPLC. The oligonucleotides were 5′ end-labeled with γ-^32P ATP (Dupont-NEN) and T4 polynucleotide kinase (New England Biolabs).
Duplexes (10 μM) were incubated with Δ or Λ [Rh(bpy)2(chrysi)]^3+(1 μM in 50 mM Tris, 20 mM NaOAc, 18 mM NaCl, pH 7.0) for 11 minutes, then irradiated for 13 min at 365 nm using an Oriel HgXe arc lamp. The products were analyzed by PAGE (20%, denaturing), imaged using a Molecular Dynamics Phosphorimager. The lanes labeled A+G and C+T are standard Maxam-Gilbert sequencing reactions: the remaining columns show cleavage (or lack of cleavage) for each tested mismatch with each enantiomer. […] Here, cleavage occurred to the 3′ side of the mismatch site. […] Unlike the other recognized mismatches, the cleavage 3′ to C-A results in two products having different gel mobility, possibly the result of chemically different polymer termini. The cleavage of A-A was also distinctive.

[3] = system: mismatch-sequence context combinations in DNA duplexes; assay: Photocleavage with systematically changed bases 5′ and 3′ of the mismatch site; type: biochemical; details: flanking bases 5′ and 3′ of the mismatch systematically changed
[4] = system: hairpin DNA oligonucleotide (SEQ ID NO:3) having a single C-C mismatch; assay: Photocleavage titration on hairpin DNA with single C-C mismatch; details: 313 or 365 nm, Rh complex at 0.10× DNA concentration, single binding site model fit
Experimental: A hairpin DNA oligonucleotide was synthesized with the sequence:
5′-[…]-3′ (SEQ ID NO:3), having a single C-C mismatch. The hairpin was photocleaved as described in Example 2 above with Δ[Rh(bpy)2(chrysi)]^3+ at either 313 nm or 365 nm for 7.5 to 15 min. Hairpin DNA concentration was varied from 3×10^−10 M to 1×10^−4 M, with the Rh complex used at 0.10× the DNA concentration. The cleavage products were eluted through 20% denaturing polyacrylamide gels, and analyzed using a Molecular Dynamics Phosphorimager and ImageQuant software. Cleavage was observed 3′ to the C-C mismatch on both sides of the hairpin: only the cleavage band closest to the end label was quantitated. Data from multiple trials was normalized (open circles) and fit to a standard single binding site binding model (solid line).
as §1

[5] = duplex 10 μM, complex 1 μM, 13 min at 365 nm
[6] = duplex 10 μM, complex 1 μM, 13 min at 365 nm, compared with C-C

**Q.** “Δ-[Rh(bpy)2(chrysi)]Cl3 [Δ[Rh(bpy)2(chrysi)]^3+]” was tested. Which “average non-specific binding affinity” value [1] did it give?
**A.** The value was 4 (±2)×10^4 M^−1.

**Q.** And the “photocleavage at A-A mismatch, base 3′ to the site” value [2, 5]?
**A.** Its value is “strong cleavage”.

**Q.** And the “photocleavage at the A-A site itself” value [2, 5]?
**A.** Its value is “a small amount of cleavage”.

**Q.** And the “photocleavage at C-A mismatch” value ([2]; duplex 10 μM, complex 1 μM, 13 min at 365 nm, at the mismatched C and the base 3′ to the mismatch site)?
**A.** Its value is “Strong cutting”.

**Q.** What about the “photocleavage at T-C mismatch” value [2, 6] of the same substance?
**A.** The value was “less intense cleavage”.

**Q.** And the “photocleavage at T-T mismatch” value [2, 6]?
**A.** Its value is “less intense cleavage”.

**Q.** What about the “photocleavage at C-C mismatch” value ([2]; duplex 10 μM, complex 1 μM, pH 7.0, irradiated 13 min at 365 nm, cleavage to the 3′ side of the mismatch site) of the same substance?
**A.** Its value is “strongest cleavage intensity”.

**Q.** What about the “mismatch-sequence context combinations at which photocleavage was observed (count)” value [3] of the same substance?
**A.** The value was 83 of 104.

**Q.** What about the “mismatch-sequence context combinations at which photocleavage was observed (percent)” value [3] of the same substance?
**A.** The value was 80%.

**Q.** And the thermodynamic binding constant [4]?
**A.** Its thermodynamic binding constant is 8.4 (±1.0)×10^5 M^−1.

**Q.** Which results are given for Λ-[Rh(bpy)2(chrysi)]Cl3 [Λ enantiomer]?
**A.** mismatch pairs cleaved among all tested pairs ([2]; A-T, G-C, C-C, C-A, T-T, A-A, T-C, T-G, G-A, G-G tested): The A-A mismatch is the only pair cleaved; photocleavage at A-A mismatch relative to the other enantiomer [2, 5]: weaker cleavage
